Tests used:
[1] = system: Plasmodium falciparum; assay: NOVARTIS: Inhibition of Plasmodium falciparum 3D7 (drug-susceptible) proliferation in erythrocyte-based infection assay; format: functional, organism-based; settings: Plasmodium falciparum, 3D7
[2] = NOVARTIS: Cytotoxicity against human hepatocellular carcinoma cell line (Huh7); format: toxicity, cell-based, Huh-7; settings: Huh7 cells (hepatocellular carcinoma cell line)
[3] = system: Plasmodium falciparum; assay: NOVARTIS: Inhibition of Plasmodium falciparum W2 (drug-resistant) proliferation in erythrocyte-based infection assay; format: functional, organism-based; settings: Plasmodium falciparum, W2; read-out: EC50

Compound	EC50 [1] [nM]	CC50 [2] [nM]	EC50 [3] [nM]
C[n+]1c2ccccc2nc2ccc(NC3CCCCC3N)cc21.[O-][Cl+3]([O-])([O-])[O-] (configuration not stated)	256	4210	122
COc1cc(NCCCC(C)N)c2ncccc2c1 (configuration not stated)	215	14400	418
CN(C)c1cc(NC(=O)Nc2cccc(Cl)c2)c2ccccc2n1	76.5	> 10000	292
COc1ccc2nc(C)cc(Nc3ccc(Oc4ccc5ccccc5c4)c(Cl)c3)c2c1	166	7070	206
O=C(Nc1cccc(Cl)c1)c1cc2ccccc2cc1O	545	7890	229
Cc1ccccc1Nc1nc(NCCO)c2ccccc2n1	1710	23700	689
O=C(/C=C/c1ccccc1)Nc1ccccc1C(=O)Nc1ccc(-c2nc3ccc(NC(=O)c4ccccc4NC(=O)/C=C/c4ccccc4)cc3[nH]2)cc1	347	> 13300	382
CC(C)NC(=O)c1cc(NC(=O)c2cccs2)ccc1N1CCc2ccccc2C1	1260	16300	479
COc1ccc(C=NNc2nc(Nc3ccc([N+](=O)[O-])cc3)nc(N3CCN(C)CC3)n2)cc1OC	1820	15200	444
Cc1cc(N2CCN(C)CC2)nc2ccc(NC(=O)/C=C/c3ccc4c(c3)OCO4)cc12	> 1250	> 10000	292
COC(=O)c1cccc(NC(=O)C(=Cc2cccc([N+](=O)[O-])c2)NC(=O)c2ccccc2OC)c1	994	> 100000	2910
COc1ccc(-n2c(S)nnc2CNc2cccc(C(F)(F)F)c2)cc1	4860	> 100000	2910
CCOC(=O)c1c(NC(=O)C(C)Sc2ncnc3c2oc2ccccc23)sc2c1CCC2 (configuration not stated)	> 8810	> 100000	2900
CCN(CCN1CCN(S(=O)(=O)c2cc(Cl)ccc2Cl)CC1)CC1=CCC2CC1C2(C)C (configuration not stated)	1790	> 10000	289
CC(NCCCN(C)C)c1cc(C(C)(C)C)cc2c1CCC2(C)C (configuration not stated)	620	6220	179
CC(C)CNC(=O)c1cnc(NCCCn2ccnc2)nc1NC1CCCC1	678	> 10000	> 298
COC(CNC(=O)c1c[nH]c2ccc(S(=O)(=O)N3CCN(C)CC3)cc2c1=O)OC	> 12500	> 100000	2860
CN(CCCNc1ccnc2cc(Cl)ccc12)C(=O)/C=C/c1ccccc1	371	> 10000	286
O=C(Nc1ccccc1O)c1ccc(Cl)cc1	3260	36200	1090
Cc1cccc(NC(=S)NC2CC3CCCC(C2)N3CCc2ccccc2)c1 (configuration not stated)	668	30700	914
Cc1ccc(C)c(S(=O)(=O)N=C2C=C(SCC(=O)O)C(=O)c3ccccc32)c1	3600	17700	527
COc1ccc2nc3ccccc3c(N)c2c1	133	5720	176
COc1ccc(CCN2CC(CNC(=O)Cc3cccnc3)C(c3ccc(N(C)C)cc3)C2)cc1OC (configuration not stated)	997	> 10000	> 306

Compound	EC50 [1] [nM]	CC50 [2] [nM]	EC50 [3] [nM]
CCc1ccc2[nH]c(=O)c(CN(Cc3ccc(OC)cc3)C(=S)NCCCN(CC)CC)cc2c1	3460	18200	554
COc1ccc(CN2CCc3nc(N4CCCCC4)sc3C2)cc1	293	> 10000	301
CCOC(=O)N1CCc2c(sc(NCc3ccc(C)o3)c2C(=O)Nc2ccc(OC)cc2OC)C1	9100	> 100000	3010
CC[n+]1c(C)cc2c([nH]c3ccccc32)c1C	1240	> 100000	3000
CCOc1ccc(C2C(C(=O)OCCc3ccccc3)=C(C)NC3=C2C(=O)CC(C)(C)C3)cc1 (configuration not stated)	10700	> 100000	2940
Cc1ccc(-n2cc(C(=O)N(C)Cc3ccccc3)c3ccccc3c2=O)cc1C	> 9840	> 100000	2930
Cc1nc(-c2nc3c(s2)CN(C(=O)COc2ccc(Cl)cc2)CC3)cs1	> 10700	> 100000	2920
Cc1cc(N2CCCC2)nc2ccc(NC(=S)NCCN3CCc4ccccc4C3)cc12	44	21500	629
COCCNCC(O)CON=C1c2ccccc2-c2ccccc21 (configuration not stated)	4790	23300	704
COCCN(C)C(=O)COC(c1cccs1)c1cccnc1Cl (configuration not stated)	407	> 10000	299
CCOC(=O)c1c(C)oc2c1c1c(c3ccccc32)OCN(C2CCCC2)C1	11100	> 100000	2960
Fc1ccc(Nc2nc(NCC3CCCO3)c3ccccc3n2)cc1 (configuration not stated)	214	9530	282
CCCc1c(C)nc2ccc(C)cc2c1O	3220	> 100000	2960
COc1ccc2cc(CNCCCO)c(N3CCN(c4ccc(F)cc4)CC3)nc2c1	2990	20000	600
O=C(CCn1c(=O)[nH]c2ccccc21)NCC1Cc2cccc(-c3ccncc3)c2O1 (configuration not stated)	3250	> 100000	2980
COCCn1c(SCC(=O)c2ccc(C)cc2C)nnc1-c1ccco1	> 868	> 10000	295
CCCCNC(=S)N(Cc1cccs1)Cc1cc2cc(C)ccc2[nH]c1=O	1020	> 10000	295
COc1ccccc1-n1c(S)nnc1-c1ccccc1O	276	> 10000	295
O=C(Nc1cc(Cl)ccc1O)c1cnn2c(C(F)(F)F)cc(-c3ccc(F)cc3)nc12	> 8740	> 100000	2910
COc1ccc(CN(Cc2cc3cc(OC)c(OC)cc3[nH]c2=O)C(=S)NCCc2ccc(OC)c(OC)c2)cc1	5580	35700	1040
O=C(NCc1ccccc1)c1cnc(NCCC(c2ccccc2)c2ccccc2)nc1NCC1CCCCC1	527	> 10000	292
COc1ccc(NC(=O)CCCCCn2c(SCc3cc(=O)oc4cc(O)ccc34)nc3ccsc3c2=O)cc1	5820	> 100000	2870
CCCCCCCN(CCCCCCC)CC(O)c1cc2ccccc2c2cc(Br)ccc12 (configuration not stated)	867	> 4630	136

Compound	EC50 [1] [nM]	CC50 [2] [nM]	EC50 [3] [nM]
Cn1c(C(OCC(=O)N2CCN(Cc3ccccc3)CC2)c2cccnc2)cc2ccccc21 (configuration not stated)	2250	38100	1100
CC1(C)O[C@@H]2OC([C@@H](O)CNc3ccc([N+](=O)[O-])cc3[N+](=O)[O-])C(O)[C@@H]2O1 (some centres not stated)	299	12000	366
COC1=CC(=O)c2c(ccc3c(OC)c(O)ccc23)C1=O	200	> 10000	302
CCOC(=O)c1ccc2nc(C)cc(Nc3ccc(N4CCCCC4)cc3)c2c1	292	21200	634
CCOc1ccc(Nc2nc(NCc3ccccc3)c3ccccc3n2)cc1	88.2	5670	170
CC(C(=O)N1CCN(C(c2ccccc2)c2ccccc2)CC1)N(CCN1CCOCC1)S(=O)(=O)c1ccccn1 (configuration not stated)	> 819	> 10000	287
CCOc1ccc2[nH]c3c(NCCCN(C)C)ncnc3c2c1	203	26600	778
COc1ccc(/C=C2/SC(=N)N(c3ccccc3OC)C2=O)cc1	350	> 10000	291
Cc1ccc(NC(=O)COc2ccc(Cl)cc2Cl)nc1	> 5570	> 100000	> 3030
C=C[C@H]1CN2CC[C@H]1C[C@@H]2[C@@H](OC(=O)c1cccs1)c1ccnc2ccccc12	1130	> 10000	294
Cc1cc(Br)cc(Cl)c1OC(=O)c1ccno1	> 12500	> 100000	3000
Cc1n(-c2ccccc2)c2c([n+]1C)C(=O)c1ccccc1C2=O	6.55	427	12.9
C=CCN1/C(=C/C=C/c2sc3ccccc3[n+]2CC=C)Sc2ccccc21	2030	> 10000	292
c1ccc([Si]2(c3ccccc3)N[Si](c3ccccc3)(c3ccccc3)N[Si](c3ccccc3)(c3ccccc3)N2)cc1	521	> 10000	299
Cn1c2ccncc2c2cc([N+](=O)[O-])ccc21	833	31400	938
C=C[C@H]1CN2CC[C@H]1C[C@H]2[C@H](OC(=O)CCC)c1ccnc2ccccc12	335	> 10000	286
CC(C)N(CC(=O)Nc1cc(C(C)(C)C)nn1-c1ccc(Cl)c(Cl)c1)C(=O)c1ccc2ccccc2c1	1310	> 100000	3000
CCc1cc2c(Nc3ccncc3)ncnc2s1	2500	> 100000	2940
CCN1C(C)=C(C)S/C1=C\c1ccc2cc(C)ccc2[n+]1C	227	5720	170
CCc1ccc(-n2c(C(CC)N(CCc3ccccc3)C(=O)c3cc(OC)cc(OC)c3)nc3ccccc3c2=O)cc1 (configuration not stated)	> 547	> 10000	292
Cc1onc(O)c1CC(N)C(=O)O (configuration not stated)	158	> 10000	302
CCCCN(C(=O)c1ccccc1C)c1nc(-c2cc(OC)ccc2OC)cs1	1720	> 100000	2860
CCc1ccc2[nH]c(=O)c(CN(CCN(CC)CC)C(=S)NCCCN(CC)CC)cc2c1	2380	45600	1390
